The values below come from patent US20110039770A1, “INHIBITORS OF PROTEIN KINASE C ISOFORMS AND USES THEREOF” (PHARMAGAP INC., priority 2005, published 2011).

Assay [1] has as its target T1, PKC epsilon (Homo sapiens, UniProt Q02156).
T1 sequence (Q02156 1-737): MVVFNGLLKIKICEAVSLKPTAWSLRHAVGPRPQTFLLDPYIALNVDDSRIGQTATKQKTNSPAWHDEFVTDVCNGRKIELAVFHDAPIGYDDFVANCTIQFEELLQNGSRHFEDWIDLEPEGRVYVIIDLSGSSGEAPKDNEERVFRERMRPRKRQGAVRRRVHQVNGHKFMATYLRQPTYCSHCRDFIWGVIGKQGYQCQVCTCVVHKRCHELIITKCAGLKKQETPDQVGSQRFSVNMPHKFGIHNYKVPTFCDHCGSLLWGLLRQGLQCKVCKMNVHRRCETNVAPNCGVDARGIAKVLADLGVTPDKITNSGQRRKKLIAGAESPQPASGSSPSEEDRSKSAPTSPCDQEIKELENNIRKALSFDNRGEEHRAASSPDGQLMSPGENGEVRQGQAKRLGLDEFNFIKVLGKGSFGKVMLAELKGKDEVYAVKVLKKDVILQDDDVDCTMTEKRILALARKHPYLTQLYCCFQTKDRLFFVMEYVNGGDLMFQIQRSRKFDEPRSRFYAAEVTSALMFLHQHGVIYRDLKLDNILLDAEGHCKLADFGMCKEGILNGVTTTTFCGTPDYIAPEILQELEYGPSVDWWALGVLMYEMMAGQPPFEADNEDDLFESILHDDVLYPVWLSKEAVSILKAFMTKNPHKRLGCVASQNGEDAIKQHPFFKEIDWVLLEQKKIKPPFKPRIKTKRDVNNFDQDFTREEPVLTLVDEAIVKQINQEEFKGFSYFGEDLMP
Description: Kinase-Glo Luminescent Kinase Assay. The format is biochemical. Further details: purchased. The note with it: read-out: % Inhibition PKC-ε. As to the method: Compounds TIM 10, 11, 13, 14, 15, and 18-22 (see Table 28) were tested for their ability to inhibit the activity of PKC-alpha, beta 1, delta and epsilon isoforms the Kinase-Glo™ Luminescent Kinase Assay (Promega, Cat # V6712/3/4) following the manufacturer's instructions.

The target of assay [2] is PKC-α (Homo sapiens, UniProt P17252). The experiment in a line: Competition of PRE with PKC-α antibody binding on Western blot, Protocol A, IMR-32 lysate. Further details: endogenous PKC-α in (A) untreated human neuroblastoma (IMR-32) cells; endogenous in cells; host or cells: IMR-32 human neuroblastoma cells. The note with it: IMR-32 cells.
Assay [3] deals with T2, PKC-α (Rattus norvegicus, UniProt P05696).
T2 construct: C6Cx43 cells (rat glioma transfected cells overexpressing connexin 43); endogenous in cells; host or cells: C6Cx43 rat glioma cells (transfected with connexin 43, not with PKC)
Description: Competition of PRE with PKC-α antibody binding on Western blot, Protocol A, C6Cx43 lysate. The note with it: C6Cx43 cells. As to the method:
The ability of the PRE 1, 2 and 3 (see Table 3 above) to interfere with the binding of a PKC-α-specific polyclonal antibody to PKC-α was determined using the following protocol.
Cell lysates from either IMR-32 (human neuroblastoma) cells or C6Cx43 cells (rat glioma transfected cells overexpressing connexin 43) were obtained using standard protocols and the proteins of the lysate were separated by SDS PAGE electrophoresis and electrotransferred onto a nitrocellulose membrane. The membrane was incubated for 30 minutes in blocking buffer (TBST) containing the test peptide at either 5× or 20× the concentrations of the primary antibody. A primary polyclonal antibody specific for PKC-α (Santa Cruz Biotechnology, Inc., CA) was then added (15 μg/ml) and the membrane incubated for a further 45 minutes. Finally, the primary antibody was detected with a secondary antibody conjugated to alkaline phosphatase using standard procedures. The intensity of the band corresponding to PKC-α was assessed by scanning and densitometry using the Gel-Pro software (Media Cybernetics) to obtain relative band intensities (average of 3 replicas). Control assays were conducted as described above except that blocking buffer without peptide was used.
The results are expressed as relative band intensity and as a percentage of the intensity of the corresponding band in the control assay (“Relative intensity (%)”). “% inhibition” relates to the percentage of the PKC-α band that is inaccessible to the antibody.

Structures are written as SMILES. Where a SMILES comes first, the peptide text is derived from it. The star is where a group is joined. PNA(A) = NCCN(CC(=O)*)C(=O)Cn1cnc2c(N)ncnc21

For `CC[C@H](C)[C@H](NC(=O)[C@H](CO)NC(=O)[C@@H](NC(=O)CNC(=O)[C@@H](NC(=O)[C@H](CC(C)C)NC(=O)[C@H](CC(N)=O)NC(=O)[C@H](CCC(N)=O)NC(=O)[C@H](C)NC(=O)[C@H](CC(=O)O)NC(=O)[C@H](CCCCN)NC(=O)CNC(=O)CNC(=O)CNC(=O)CNC(=O)CNC(=O)CNC(=O)CNC(=O)[C@H](CC(C)C)NC(=O)[C@H](CCCNC(=N)N)NC(=O)[C@H](Cc1ccccc1)NC(=O)[C@H](CCCCNC(=O)CN(CCN)C(=O)Cn1cnc2c(N)ncnc21)NC(=O)[C@H](CCCNC(=N)N)NC(=O)[C@H](CCCNC(=N)N)NC(=O)[C@H](Cc1ccccc1)NC(C)=O)[C@@H](C)CC)[C@@H](C)CC)C(N)=O` [TIM 10] (Ac-FRRK(PNA(A))FRLGGGGGGGKDAQNLIGISI-NH2), the inhibition at 15 µM in assay [1] (15.0 μM) was -11%. Also, in assay [1] (30.0 μM), the inhibition at 30 µM turned out to be 85%.

For `CC[C@H](C)[C@H](NC(=O)[C@H](CO)NC(=O)[C@@H](NC(=O)CNC(=O)[C@@H](NC(=O)[C@H](CC(C)C)NC(=O)[C@H](CC(N)=O)NC(=O)[C@H](CCC(N)=O)NC(=O)[C@H](C)NC(=O)[C@H](CC(=O)O)NC(=O)CNC(=O)CNC(=O)[C@H](CCCCN)NC(=O)[C@@H](NC(=O)[C@H](CCC(=O)O)NC(=O)[C@H](CCC(N)=O)NC(=O)[C@@H](NC(=O)CNC(=O)[C@H](CCCCN)NC(=O)[C@H](C)NC(C)=O)[C@@H](C)CC)C(C)C)[C@@H](C)CC)[C@@H](C)CC)C(N)=O` [PRE 3] (Ac-AKGIQEVKGGDAQNLIGISI-NH2), the “Band Intensity” value came to 0.888 in assay [2] (600 μg); 0.600 in assay [2] (3.75 mg); 0.603 in assay [2] (5.25 mg); 0.609 in assay [2] (7.5 mg); 0.909 in assay [3] (75 μg); 0.888 in assay [3] (300 μg). Also, the “Band Intensity” value turned out to be 0.889 in assay [3] (600 μg), 0.603 in assay [3] (3.75 mg), 0.599 in assay [3] (5.25 mg) and 0.589 in assay [3] (7.5 mg).
